Data on three compounds can be found in patent EP0358957A1, “Fused tetrahydropyridineacetic acid derivatives, process for their preparation, and use of such compounds for the cardioprotection” (BOEHRINGER INGELHEIM KG, priority 1988, dated 1990).

In this experiment the test system is isolierten Rattenherzen. The experiment in a line: Isolated rat heart, method II: coronary flow throttled by 75 %, prevention of the fall in contraction amplitude. Further details: species or system Ratten. The settings on record: Method II: coronary flow reduced by 75 %; substance added to perfusion medium during flow reduction; concentration needed to prevent the fall in contraction amplitude; read-out: Benötige Konzentrationen. An excerpt:
Wird ein, längere Zeit unter ischämischen Bedingungen gehaltenes, isoliertes Herz wieder normal perfundiert, so tritt keine sofortige Normalisierung der Herzfunktion ein. Es findet sich vielmehr eine vorübergehende Periode, die durch Kontraktur und Arrhytmien gekennzeichnet ist. Diese Arrhythmiephase ist durch Veränderungen von Funktion und Struktur der Myocardzelle mit intrazellulärer Calciumüberladung bedingt (Hess u. Manson, J. Mol. Cell. Cardiol. 16, 969, 1984). Cardioprotektiv wirksame Verbindungen wie Verapamil und Diltiazem verringern die Calciumüberladung und verbessern das Kontraktionsverhalten bei Reperfusion (Watts et al, Am. J. Physiol. 238, H 909, 1980; Meno et al, Am. J. Physiol. 247, H 380, 1984), Die cardioprotektive Wirkung wird an isolierten Rattenherzen unter Ischämie und anschließender Reperfusion untersucht.
Wird der Coronarfluß isolierter Herzen um 75 % gedrosselt, so reagiert das Herz zunächst mit einer Abnahme der Kontraktionsamplitude, ein Herzstillstand tritt erst innerhalb einer Stunde ein. Cardioprotektive Substanzen, während der Periode der Flußreduzierung dem Perfusionsmedium zugesetzt, verhindern den Abfall der Kontraktionsamplitude.
As to `C=CCN(C1=NCCN1)c1c(Cl)cccc1Cl` [Alinidin, reference compound], the minimal effective concentration came to 8.3 µg/mL. Take `COc1cc2c(cc1OC)C(C(CCc1ccccc1)C(=O)NCCc1ccncc1)NCC2` (stereo not drawn) [D]: the minimal effective concentration was 3 µg/mL. The figure for `CCCCNC(=O)C(CCc1ccccc1)C1NCCc2cc(OC)c(OC)cc21` (stereo not drawn) [E] is 1 µg/mL.
